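Exposure lasted 48 hours, with cells grown in 96-well plates and compounds tested at five concentrations. At the GI50, growth is halved. TGI denotes the concentration required for complete inhibition of growth.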
Key:
Assay in all cases: growth of human tumour cells (NCI), 48 h
[1] = tested on: 786-0 renal
[2] = tested on: A498 renal
[3] = tested on: A549 NSCLC
[4] = tested on: ACHN renal
[5] = tested on: BT-549 breast
[6] = tested on: CAKI-1 renal
[7] = tested on: CCRF-CEM leukemia
[8] = tested on: COLO 205 colon
[9] = tested on: DU-145 prostate
[10] = tested on: HCC-2998 colon
[11] = tested on: HCT-116 colon
[12] = tested on: HCT-15 colon
[13] = tested on: HL-60(TB) leukemia
[14] = tested on: HOP-62 NSCLC
[15] = tested on: HOP-92 NSCLC
[16] = tested on: HS 578T breast
[17] = tested on: HT29 colon
[18] = tested on: IGROV1 ovarian
[19] = tested on: K-562 leukemia
[20] = tested on: KM12 colon
[21] = tested on: LOX IMVI melanoma
[22] = tested on: MALME-3M melanoma
[23] = tested on: MCF7 breast
[24] = tested on: MDA-MB-231 breast
[25] = tested on: MDA-MB-435
[26] = tested on: MOLT-4 leukemia
[27] = tested on: NCI-H226 lung
[28] = tested on: NCI-H23 lung
[29] = tested on: NCI-H460 lung
[30] = tested on: NCI-H522 lung
[31] = tested on: NCI/ADR-RES ovarian
[32] = tested on: OVCAR-3 ovarian
[33] = tested on: OVCAR-4 ovarian
[34] = tested on: OVCAR-5 ovarian
[35] = tested on: OVCAR-8 ovarian
[36] = tested on: PC-3 prostate
[37] = tested on: RPMI-8226 leukemia
[38] = tested on: RXF 393 renal
[39] = tested on: SF-268 CNS
[40] = tested on: SF-295 CNS
[41] = tested on: SF-539 CNS
[42] = tested on: SK-MEL-2 melanoma
[43] = tested on: SK-MEL-28 melanoma
[44] = tested on: SK-MEL-5 melanoma
[45] = tested on: SK-OV-3 ovarian
[46] = tested on: SN12C renal
[47] = tested on: SNB-19 CNS
[48] = tested on: SNB-75 CNS
[49] = tested on: SR leukemia
[50] = tested on: SW-620 colon
[51] = tested on: T-47D breast
[52] = tested on: TK-10 renal
[53] = tested on: U251 CNS
[54] = tested on: UACC-257 melanoma
[55] = tested on: UACC-62 melanoma
[56] = tested on: UO-31 renal
[57] = tested on: EKVX NSCLC
[58] = tested on: M14 melanoma

OC(CNCC1CCCO1)Cn1c2ccc(Cl)cc2c2cc(Cl)ccc21 (centres undefined)
GI50 [1]: 1.59 µM
TGI [1]: 3.08 µM
GI50 [2]: 1.06 µM
TGI [2]: 8.83 µM
GI50 [3]: 1.87 µM
TGI [3]: 3.69 µM
GI50 [4]: 1.68 µM
TGI [4]: 3.16 µM
GI50 [5]: 5.98 µM
TGI [5]: 27.1 µM
GI50 [6]: 1.54 µM
TGI [6]: 3 µM
GI50 [7]: 2.28 µM
TGI [7]: 4.99 µM
GI50 [8]: 1.92 µM
TGI [8]: 3.61 µM
GI50 [9]: 1.83 µM
TGI [9]: 3.37 µM
GI50 [10]: 1.71 µM
TGI [10]: 3.15 µM
GI50 [11]: 1.73 µM
TGI [11]: 3.12 µM
GI50 [12]: 1.67 µM
TGI [12]: 3.26 µM
GI50 [13]: 2.3 µM
TGI [13]: 5.51 µM
GI50 [14]: 1.72 µM
TGI [14]: 3.39 µM
GI50 [15]: 2.15 µM
TGI [15]: 6.24 µM
GI50 [16]: 2.14 µM
TGI [16]: 6.93 µM
GI50 [17]: 1.94 µM
TGI [17]: 3.72 µM
GI50 [18]: 2.05 µM
TGI [18]: 4.03 µM
GI50 [19]: 2.15 µM
TGI [19]: 4.76 µM
GI50 [20]: 1.81 µM
TGI [20]: 3.27 µM
GI50 [21]: 1.65 µM
TGI [21]: 3 µM
GI50 [22]: 1.93 µM
TGI [22]: 3.94 µM
GI50 [23]: 1.72 µM
TGI [23]: 3.25 µM
GI50 [24]: 1.75 µM
TGI [24]: 3.5 µM
GI50 [25]: 1.66 µM
TGI [25]: 3.02 µM
GI50 [26]: 2.09 µM
TGI [26]: 4.65 µM
GI50 [27]: 2.42 µM
TGI [27]: 8.1 µM
GI50 [28]: 1.92 µM
TGI [28]: 3.61 µM
GI50 [29]: 1.95 µM
TGI [29]: 3.75 µM
GI50 [30]: 1.89 µM
TGI [30]: 3.6 µM
GI50 [31]: 1.93 µM
TGI [31]: 3.82 µM
GI50 [32]: 1.82 µM
TGI [32]: 3.28 µM
GI50 [33]: 1.75 µM
TGI [33]: 4.32 µM
GI50 [34]: 1.89 µM
TGI [34]: 3.61 µM
GI50 [35]: 2.02 µM
TGI [35]: 4.22 µM
GI50 [36]: 1.93 µM
TGI [36]: 3.74 µM
GI50 [37]: 2.69 µM
TGI [37]: 6.2 µM
GI50 [38]: 1.62 µM
TGI [38]: 3.51 µM
GI50 [39]: 1.87 µM
TGI [39]: 3.77 µM
GI50 [40]: 1.78 µM
TGI [40]: 3.57 µM
GI50 [41]: 1.66 µM
TGI [41]: 3.13 µM
GI50 [42]: 2.29 µM
TGI [42]: 4.28 µM
GI50 [43]: 1.67 µM
TGI [43]: 3.15 µM
GI50 [44]: 1.77 µM
TGI [44]: 3.26 µM
GI50 [45]: 2.08 µM
TGI [45]: 4.19 µM
GI50 [46]: 2.06 µM
TGI [46]: 4.58 µM
GI50 [47]: 1.88 µM
TGI [47]: 3.96 µM
GI50 [48]: 1.39 µM
TGI [48]: 2.87 µM
GI50 [49]: 2.05 µM
TGI [49]: 5.5 µM
GI50 [50]: 1.7 µM
TGI [50]: 3.38 µM
GI50 [51]: 1.91 µM
TGI [51]: 3.89 µM
GI50 [52]: 2.05 µM
TGI [52]: 3.75 µM
GI50 [53]: 1.65 µM
TGI [53]: 3.05 µM
GI50 [54]: 1.64 µM
TGI [54]: 3.13 µM
GI50 [55]: 1.78 µM
TGI [55]: 3.46 µM
GI50 [56]: 1.61 µM
TGI [56]: 3.15 µM

COc1ccc(NC(=O)COCCOCCNC[C@@H]2C(=O)O[C@H]3[C@H]2CC/C(COC(=O)OC/C2=C/CC[C@@]4(C)O[C@H]4[C@H]4OC(=O)[C@@H](CN(C)C)[C@@H]4CC2)=C\CC[C@@]2(C)O[C@@H]32)c(O)c1C(N)=O
GI50 [1]: 6.17 µM
TGI [1]: 13.7 µM
GI50 [2]: 16.6 µM
TGI [2]: > 50 µM
GI50 [3]: 31.8 µM
TGI [3]: > 50 µM
GI50 [4]: 0.987 µM
TGI [4]: 2.21 µM
GI50 [5]: 6.19 µM
TGI [5]: 12.9 µM
GI50 [7]: 1.21 µM
TGI [7]: 3.27 µM
GI50 [8]: 1.06 µM
TGI [8]: 2.52 µM
GI50 [9]: 7.21 µM
TGI [9]: 13.7 µM
GI50 [57]: 5.76 µM
TGI [57]: 14.7 µM
GI50 [10]: 10.2 µM
TGI [10]: 19.1 µM
GI50 [11]: 3.5 µM
TGI [11]: 9.86 µM
GI50 [12]: 1.44 µM
TGI [12]: 6.14 µM
GI50 [13]: 0.77 µM
TGI [13]: 1.91 µM
GI50 [14]: 39.9 µM
TGI [14]: > 50 µM
GI50 [15]: 1.71 µM
TGI [15]: 6.93 µM
GI50 [16]: 14.7 µM
TGI [16]: > 50 µM
GI50 [17]: 1.71 µM
TGI [17]: 5.77 µM
GI50 [18]: 4.68 µM
TGI [18]: 11.8 µM
GI50 [20]: 9.72 µM
TGI [20]: 22.5 µM
GI50 [21]: 5.31 µM
TGI [21]: 11.4 µM
GI50 [58]: 7.22 µM
TGI [58]: 15.5 µM
GI50 [22]: 1.52 µM
TGI [22]: 4.12 µM
GI50 [23]: 1.63 µM
TGI [23]: 9.01 µM
GI50 [24]: 5.03 µM
TGI [24]: 11.3 µM
GI50 [25]: 5.19 µM
TGI [25]: 12.3 µM
GI50 [26]: 1.63 µM
TGI [26]: 6 µM
GI50 [27]: 8.33 µM
TGI [27]: 16.2 µM
GI50 [28]: 9.06 µM
TGI [28]: 22.1 µM
GI50 [29]: 16.5 µM
TGI [29]: > 50 µM
GI50 [30]: 0.888 µM
TGI [30]: 1.88 µM
GI50 [31]: > 50 µM
TGI [31]: > 50 µM
GI50 [32]: 1.47 µM
TGI [32]: 5.26 µM
GI50 [33]: 3.19 µM
TGI [33]: 10.2 µM
GI50 [34]: 8.9 µM
TGI [34]: 17.4 µM
GI50 [35]: 3.56 µM
TGI [35]: 12 µM
GI50 [36]: 11.1 µM
TGI [36]: 26.9 µM
GI50 [37]: 1.42 µM
TGI [37]: 4.21 µM
GI50 [38]: 1.3 µM
TGI [38]: 3.59 µM
GI50 [39]: 8.7 µM
TGI [39]: 18.7 µM
GI50 [40]: > 50 µM
TGI [40]: > 50 µM
GI50 [41]: 3.42 µM
TGI [41]: 9.92 µM
GI50 [42]: 9.69 µM
TGI [42]: 20.3 µM
GI50 [43]: 2.79 µM
TGI [43]: 9.57 µM
GI50 [44]: 8.79 µM
TGI [44]: 17.3 µM
GI50 [45]: 40.6 µM
TGI [45]: > 50 µM
GI50 [46]: 7.74 µM
TGI [46]: 17.5 µM
GI50 [47]: 14.3 µM
TGI [47]: > 50 µM
GI50 [48]: 10.2 µM
TGI [48]: > 50 µM
GI50 [49]: 1.99 µM
TGI [49]: 9.28 µM
GI50 [50]: 1.14 µM
TGI [50]: 2.87 µM
GI50 [51]: 1.71 µM
TGI [51]: 10.4 µM
GI50 [52]: 2.72 µM
TGI [52]: 9.12 µM
GI50 [53]: 8.87 µM
TGI [53]: 18 µM
GI50 [54]: 6.1 µM
TGI [54]: 13.2 µM
GI50 [55]: 5.11 µM
TGI [55]: 11.4 µM
GI50 [56]: 2.51 µM
TGI [56]: 9.13 µM
